Patent publication US5719278A, “Tricyclic benzazepine vasopressin antagonists” (American Cyanamid Company, priority 1996, dated 1998)

Legend:
oxytocin receptors = molecular target: T1, oxytocin receptors (Rattus norvegicus, UniProt P70536); experiment: Oxytocin Receptor Binding; parameters: species or system Sprague-Dawley rat; settings: for IC50: 1.0 nM [^3 H]OT, 60 min., 22° C.
T1 construct: The uteri are dissected out, cleaned of fat and connective tissues; from tissue; host or cells: uterus of DES-treated female Sprague-Dawley rats
T1 sequence (P70536 1-388): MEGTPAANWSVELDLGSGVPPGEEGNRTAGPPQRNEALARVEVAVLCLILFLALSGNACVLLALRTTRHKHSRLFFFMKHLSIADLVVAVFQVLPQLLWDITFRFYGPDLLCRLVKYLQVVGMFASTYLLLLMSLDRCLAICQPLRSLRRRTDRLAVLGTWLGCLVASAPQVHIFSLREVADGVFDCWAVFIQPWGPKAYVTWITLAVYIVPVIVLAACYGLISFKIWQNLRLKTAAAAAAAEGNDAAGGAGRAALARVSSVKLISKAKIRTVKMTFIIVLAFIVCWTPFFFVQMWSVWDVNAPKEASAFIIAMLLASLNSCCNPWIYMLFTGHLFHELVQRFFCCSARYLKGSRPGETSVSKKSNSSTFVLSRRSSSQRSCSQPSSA
Protocol: Oxytocin Receptor Binding
Female Sprague-Dawley rats weighing approximately 200-250 g are injected intramuscularly (i.m.) with 0.3 mg/kg of body weight of diethylstilbestrol (DES). The rats are sacrificed 18 hours later under pentobarbital anesthesia. The uteri are dissected out, cleaned of fat and connective tissues and rinsed in 50 ml of normal saline. The tissue pooled from six rats is homogenized in 50 ml of […] TriS.HCl, containing 0.5 mM dithiothreitol and 1.0 mM EDTA, adjusted to pH 7.4, using a polytron at setting 6 with three passes of 10 sec each. The homogenate is passed through two (2) layers of cheesecloth and the filtrate contrifuged at 1000×g for 10 min. The clear supernatant is removed and recentrifuged at 165,000×g for 30 min. The resulting pellet containing the oxytocin receptors is resuspended in 50.0 mM Tris.HCl containing 5.0 mM MgCl2 at pH 7.4, to give a protein concentration of 2.5 mg/ml of tissue suspension. This preparation is used in subsequent binding assays with [^3 H]Oxytocin.
Binding of 3,5-[^3 H]Oxytocin ([^3 H]OT) to its receptors is done in microtiter plates using [^3 H]OT, at various concentrations, in an assay buffer of 50.0 mM Tris.HCl, pH 7.4 and containing 5.0 mM MgCl2, and a mixture of protease inhibitors: BSA, 0.1 mg; aprotinin, 1.0 mg; 1,10-phenanthroline, 2.0 mg; […], 10.0 mg; and PMSF, 0.3 mg per 100 ml of buffer solution. Non-specific binding is determined in the presence of 1.0 uM unlabeled OT. The binding reaction is terminated after 60 min., at 22° C., by rapid filtration through glass fiber filters using a Brandel® cell harvester (Biomedical Research and Development Laboratories, Inc., Gaithersburg, Md.). Competition experiments are conducted at equilibrium using 1.0 nM [^3 H]OT and varying the concentration of the displacing agents. The concentrations of agent displacing 50% of [^3 H]OT at its sites (IC50) are calculated by a computer assisted LUNDON-2 program (LUNDON SOFTWARE INC., Ohio, U.S.A.).

[1] = molecular target: T2, V1 Receptor Subtype in Human Platelet (Homo sapiens, UniProt P37288); experiment: Binding to Vasopressin V1 Receptor Subtype in Human Platelet Membranes; settings: *Binding to V1 Receptor Subtype in Human Platelet
T2 construct: from tissue; host or cells: human platelets (platelet rich plasma from Hudson Valley Blood Services)
T2 sequence (P37288 whole entry): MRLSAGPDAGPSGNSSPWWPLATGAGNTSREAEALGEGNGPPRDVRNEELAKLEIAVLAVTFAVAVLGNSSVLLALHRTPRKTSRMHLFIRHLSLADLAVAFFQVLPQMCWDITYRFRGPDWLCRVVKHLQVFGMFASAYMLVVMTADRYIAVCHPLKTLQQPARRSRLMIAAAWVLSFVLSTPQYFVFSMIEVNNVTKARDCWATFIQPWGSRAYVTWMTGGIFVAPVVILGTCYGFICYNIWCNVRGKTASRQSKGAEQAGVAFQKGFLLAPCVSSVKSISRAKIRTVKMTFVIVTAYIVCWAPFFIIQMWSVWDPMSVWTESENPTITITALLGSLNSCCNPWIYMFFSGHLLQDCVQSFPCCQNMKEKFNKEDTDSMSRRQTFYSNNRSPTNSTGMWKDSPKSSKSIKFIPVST
Protocol: Radioligand Binding Experiments with Human Platelet Membranes
Platelet Source: Hudson Valley Blood Services, Westchester Medical Center, Valhalla, N.Y.
Frozen platelet rich plasma (PRP), received from the Hudson Valley Blood Services are thawed to room temperature. The tubes containing the PRP are centrifuged at 16,000×g for 10 min. at 4° C. and the supernatant fluid discarded. The platelets resuspended in an equal volume of 50.0 mM Tris.HCl, pH 7.5 containing 120 mM NaCl and 20.0 mM EDTA. The suspension is recentrifuged at 16,000×g for 10 min. This washing step is repeated one more time. The wash is discarded and the lysed pellets homogenized in low ionic strength buffer of Tris.HCl, 5.0 mM, pH 7.5 containing 5.0 mM EDTA. The homogenate is centrifuged at 39,000×g for 10 min. The resulting pellet is resuspended in Tris.HCl buffer, 70.0 mM, pH 7.5 and recentrifuged at 39,000×g for 10 min. The final pellet is resuspended in 50.0 mM Tris.HCl buffer pH 7.4 containing 120 mM NaCl and 5.0 mM HCl to give 1.0-2.0 mg protein per ml of suspension.
Binding to Vasopressin V1 Receptor Subtype in Human Platelet Membranes:
In wells of a 96 well format microtiter plate, add 100 μl of 50.0 mM Tris.HCl buffer containing 0.2% BSA and a mixture of protease inhibitors (aprotinin, leupeptin etc.). Then add 20 μl of [^3 H]Ligand: (Manning or Arg^8 Vasopressin), to give final concentrations ranging from 0.01 to 10.0 nM. Initiate the binding by adding 80.0 μl of platelet suspension (approx. 100 μg protein). Mix all reagents by pipetting the mixture up and down a few times. Non-specific binding is measured in the presence of 1.0 μM of unlabeled ligand (Manning or Arg^8 Vasopressin). Let the mixture stand undisturbed at room temperature for ninety (90) min. Upon this time, rapidly filter off the incubate under vacuum suction over GF/B filters, using a Brandel® Harvester. Determine the radioactivity caught on the filter disks by the addition of liquid scintillant and counting in a liquid scintillator

IC50 (oxytocin receptors) [µM] | inhibition at 10 µM (oxytocin receptors) [%] | IC50 [1] [µM] | Compound
2.5 | 93 | – | O=C(Nc1ccc(C(=O)N2CCc3cn[nH]c3-c3sccc32)cc1)c1ccc(F)cc1Cl [Example 1, N-[4-[(4,5-Dihydropyrazolo[3,4-d]thieno[3,2-b]azepin-6(1H)-yl)carbonyl]phenyl]-2-chloro-4-fluorobenzamide]
2.5 | 57 | 0.101 | O=C(Nc1ccc(C(=O)N2CCc3cn[nH]c3-c3ncccc32)cc1)c1ccccc1-c1ccccc1 [Example 365, N-[4-[(4,5-Dihydropyrazolo[3,4-d]pyrido[3,2-b]azepin-6(1H)-yl)carbonyl]phenyl][1,1'-biphenyl]-2-carboxamide]
2.1 | 63 | 0.31 | Cc1ccc(F)cc1C(=O)Nc1ccc(C(=O)N2CCc3c[nH]nc3-c3ncccc32)cc1 [Example 367, N-[4-[4(4,5-Dihydropyrazolo[3,4-d]pyrido[3,2-b]azepin-6(1H)-yl)carbonyl]phenyl]-5-fluoro-2-methylbenzamide]
